Laboratory results as given in patent US12516039B2, “N-linked isoquinoline amides as LRRK2 inhibitors, pharmaceutical compositions, and uses thereof” (Merck Sharp & Dohme LLC, priority 2020, dated 2026).

Molecular target: T1, GST-tagged truncated human mutant G2019S LRRK2 (Homo sapiens, UniProt Q5S007, G2019S)
T1 construct: GST-tagged truncated human mutant G2019S LRRK2; purchased Life Technologies Corporation (Carlsbad, CA)
Assay: LRRK2 G2019S Km ATP LanthaScreen assay
Assay type: biochemical
Settings: 134 μM ATP (Km ATP), LRRKtide substrate, mean of several tests
Method in brief: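 GST-tagged truncated human LRRK2 G2019S (1.25 nM enzyme solution) was preincubated 15 min with compound, then reacted 90 min at ambient temperature with fluorescein-LRRKtide (400 nM solution) and 134 μM ATP (Km) in Tris pH 8.5. EDTA stop; Tb anti-phospho-LRRKtide TR-FRET (520/495 ratio). IC50 from 4-parameter fits, mean of several runs.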

T1 sequence (Q5S007 970-2527 G2019S limits assumed): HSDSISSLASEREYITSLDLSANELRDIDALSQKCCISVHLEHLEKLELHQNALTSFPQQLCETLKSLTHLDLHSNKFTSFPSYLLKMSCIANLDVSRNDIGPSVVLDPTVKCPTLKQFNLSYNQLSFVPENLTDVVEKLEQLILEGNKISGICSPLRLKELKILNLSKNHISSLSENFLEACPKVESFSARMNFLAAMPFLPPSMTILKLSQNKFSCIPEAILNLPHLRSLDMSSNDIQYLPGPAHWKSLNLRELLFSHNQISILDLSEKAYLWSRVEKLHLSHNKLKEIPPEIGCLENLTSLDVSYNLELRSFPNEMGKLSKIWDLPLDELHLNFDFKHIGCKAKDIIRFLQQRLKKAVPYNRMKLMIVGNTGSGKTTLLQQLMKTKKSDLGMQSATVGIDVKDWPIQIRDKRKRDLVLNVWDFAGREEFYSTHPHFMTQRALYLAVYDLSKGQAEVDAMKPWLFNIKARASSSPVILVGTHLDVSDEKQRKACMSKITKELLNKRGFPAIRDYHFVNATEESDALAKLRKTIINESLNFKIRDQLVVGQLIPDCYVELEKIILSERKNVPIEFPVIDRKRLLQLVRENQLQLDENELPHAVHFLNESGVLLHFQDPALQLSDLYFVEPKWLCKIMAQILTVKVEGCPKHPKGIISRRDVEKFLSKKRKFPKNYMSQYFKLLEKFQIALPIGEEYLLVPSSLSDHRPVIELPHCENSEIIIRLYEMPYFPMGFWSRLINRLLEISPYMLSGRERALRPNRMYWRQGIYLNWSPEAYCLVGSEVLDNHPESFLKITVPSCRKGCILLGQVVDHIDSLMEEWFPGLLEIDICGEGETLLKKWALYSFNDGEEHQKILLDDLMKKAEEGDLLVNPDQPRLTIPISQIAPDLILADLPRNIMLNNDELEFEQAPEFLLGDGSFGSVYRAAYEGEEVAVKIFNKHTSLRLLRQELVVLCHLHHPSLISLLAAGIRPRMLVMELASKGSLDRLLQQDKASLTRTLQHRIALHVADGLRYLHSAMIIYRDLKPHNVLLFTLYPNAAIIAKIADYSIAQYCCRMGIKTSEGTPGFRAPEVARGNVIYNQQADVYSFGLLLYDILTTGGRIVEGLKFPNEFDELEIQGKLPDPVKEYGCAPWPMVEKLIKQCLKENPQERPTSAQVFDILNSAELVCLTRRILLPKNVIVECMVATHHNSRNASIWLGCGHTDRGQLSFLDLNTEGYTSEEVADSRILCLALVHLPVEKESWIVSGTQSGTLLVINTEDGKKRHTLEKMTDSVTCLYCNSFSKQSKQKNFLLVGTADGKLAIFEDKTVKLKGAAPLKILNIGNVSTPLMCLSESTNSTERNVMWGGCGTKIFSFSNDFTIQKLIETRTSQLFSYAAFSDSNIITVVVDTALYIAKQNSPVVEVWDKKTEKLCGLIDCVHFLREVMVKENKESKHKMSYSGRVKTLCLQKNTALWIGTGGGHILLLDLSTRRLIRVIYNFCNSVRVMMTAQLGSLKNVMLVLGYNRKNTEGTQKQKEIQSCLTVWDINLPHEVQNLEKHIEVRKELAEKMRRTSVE

In order of rising “LRRK2 pIC50” value:
1. CC(C)OC1CCC(C(=O)Nc2cc3cc(N4CCN(C5(C)COCC5O)CC4)c(Cl)cc3cn2)OC1 (stereo not shown) [Ex-9.5]  8.28
2. CC1(N2CCN(c3cc4cc(NC(=O)C5CC56CCOCC6)ncc4cc3C3CC3)CC2)COCC1O (stereo not shown) [Ex-6.11]  9.57
3. (1R,2R,3R, or 1R,2S,3R, or 1S,2R,3S, or 1S,2S,3S)-N-[7-chloro-6-[4-((3R,4R or 3S,4S)-4-fluoro-3-methyl-tetrahydrofuran-3-yl)piperazin-4-ium-1-yl]-3-isoquinolyl]-2-methyl-3-(2-pyridyl)cyclopropanecarboxamide [Ex-10.72]  10.09

Same assay, conditions: 134 μM ATP (Km ATP), LRRKtide substrate, mean of several tests, read-out: LRRK2 pIC50 (converted)

In order of rising IC50:
1. CCC1C(C(=O)Nc2cc3cc(N4CCN(C5(C)COCC5F)CC4)c(C)cc3cn2)C1c1cnn(C)c1 (stereo not shown) [Ex-9.20]  0.0813 nM
2. CC1(N2CCN(c3cc4cc(NC(=O)C5CC5C(F)F)ncc4cc3Cl)CC2)COCC1F (single isomer, unassigned) [Ex-10.78, (1R,2R or 1S,2S)-N-[7-chloro-6-[4-((3R,4R or 3S,4S)-4-fluoro-3-methyl-tetrahydrofuran-3-yl)piperazin-1-yl]-3-isoquinolyl]-2-(difluoromethyl)cyclopropanecarboxamide]  0.0813 nM
3. CC(C)(O)C1CC1C(=O)Nc1cc2cc(N3CCN(C4(C)COCC4O)CC3)c(Cl)cc2cn1 (single isomer, unassigned) [Ex-10.6]  0.141 nM
4. CC1(N2CCN(c3cc4cc(NC(=O)C5CC5C(F)F)ncc4cc3Cl)CC2)COCC1F (single isomer, unassigned) [Ex-10.75, (1R,2R or 1S,2S)-N-[7-chloro-6-[4-((3R,4R or 3S,4S)-4-fluoro-3-methyl-tetrahydrofuran-3-yl)piperazin-1-yl]-3-isoquinolyl]-2-(difluoromethyl)cyclopropanecarboxamide]  0.219 nM
5. C[C@H]1CN(c2cc3cc(NC(=O)C4CC45CCOCC5)ncc3cc2Cl)CCN1C1(C)COCC1O (single isomer, unassigned) [Ex-2.21, (R or S)-N-(7-chloro-6-((S or R)-4-((3R,4R, or 3S,4S)-4-hydroxy-3-methyltetrahydrofuran-3-yl)-3-methylpiperazin-1-yl)isoquinolin-3-yl)-6-oxaspiro[2.5]octane-1-carboxamide]  0.589 nM
6. CC1(N2CCN(c3cc4cc(NC(=O)C5CC56CC6(F)F)ncc4cc3Cl)CC2)COCC1O (single isomer, unassigned) [Ex-3.1, (1R,3R or 1R,3S, 1S,3R, 1S,3S)-N-(7-chloro-6-(4-((3R,4R or 3S,4S)-4-hydroxy-3-methyltetrahydrofuran-3-yl)piperazin-1-yl)isoquinolin-3-yl)-4,4-difluorospiro[2.2]pentane-1-carboxamide]  0.977 nM
7. CC1(N2CCN(c3cc4cc(NC(=O)C5CC56CCC(F)(F)CC6)ncc4cc3Cl)CC2)COCC1O (single isomer, unassigned) [Ex-1.19, (1R or 1S)-N-(7-chloro-6-(4-((3R,4R or 3S,4S)-4-hydroxy-3-methyltetrahydrofuran-3-yl)piperazin-1-yl)isoquinolin-3-yl)-6,6-difluorospiro[2.5]octane-1-carboxamide]  1.1 nM
8. Cc1cc2cnc(NC(=O)C3CC34CCOC4)cc2cc1N1CCN(C2(C)COCC2O)CC1 (single isomer, unassigned) [Ex-6.2, (1R, 3S or 1S,3R, or 1R,3S, or 1S,3S)-N-(6-(4-((3R, 4R or 3S,4S)-4-hydroxy-3-methyltetrahydrofuran-3-yl)piperazin-1-yl)-7-methylisoquinolin-3-yl)-5-oxaspiro[2.4]heptane-1-carboxamide]  1.38 nM
9. CC1(N2CCN(c3cc4cc(NC(=O)C5CCCOC5)ncc4cc3Cl)CC2)COCC1O (single isomer, unassigned) [Ex-10.4, (3R or 3S)-N-(7-chloro-6-(4-((3R, 4R or 3S, 4S)-4-hydroxy-3-methyltetrahydrofuran-3-yl)piperazin-1-yl)isoquinolin-3-yl)tetrahydro-2H-pyran-3-carboxamide]  1.38 nM
10. COCC1CCC1C(=O)Nc1cc2cc(N3CCN(C4(C)COCC4O)CC3)c(Cl)cc2cn1 (single isomer, unassigned) [Ex-1.26, (1R,2S or 1R,2R, or 1S,2S, or 1S,2R)-N-(7-chloro-6-(4-((3R,4R)-4-hydroxy-3-methyltetrahydrofuran-3-yl)piperazin-1-yl)isoquinolin-3-yl)-2-(methoxymethyl)cyclobutane-1-carboxamide]  1.45 nM
11. CC1(N2CCN(c3cc4cc(NC(=O)C5CCCOC5)ncc4cc3Cl)CC2)COCC1O (single isomer, unassigned) [Ex-10.3, (3R or 3S)-N-(7-chloro-6-(4-((3R, 4R or 3S, 4S)-4-hydroxy-3-methyltetrahydrofuran-3-yl)piperazin-1-yl)isoquinolin-3-yl)tetrahydro-2H-pyran-3-carboxamide]  1.58 nM
12. O=C(Nc1cc2cc(N3CCN(C4COCC4O)CC3)c(Cl)cc2cn1)C1CC1 (single isomer, unassigned) [Ex-1.3, (3R,4R or 3S,4S)-N-(7-chloro-6-(4-(4-hydroxytetrahydrofuran-3-yl)piperazin-1-yl)isoquinolin-3-yl)cyclopropanecarboxamide]  1.95 nM
13. CC(C)n1nccc1C1CC1C(=O)Nc1cc2cc(N3CCN(C4(C)COCC4O)CC3)c(Cl)cc2cn1 (single isomer, unassigned) [Ex-10.22, (1R,2R or 1S,2S)-N-[7-chloro-6-[4-((3R,4R or 3S,4S)-4-hydroxy-3-methyl-tetrahydrofuran-3-yl)piperazin-1-yl]-3-isoquinolyl]-2-(2-isopropylpyrazol-3-yl)cyclopropanecarboxamide]  2.69 nM
14. COc1cc2cnc(NC(=O)C3CC34CCOCC4)cc2cc1N1CCN(C2(C)COCC2O)CC1 (single isomer, unassigned) [Ex-13]  3.39 nM
15. Cc1cc2cnc(NC(=O)C3CC34CCOCC4)cc2cc1N1CCN(C2(C)COCC2O)C[C@@H]1C (single isomer, unassigned) [Ex-15.1, (R or S)-N-(6-((2R or 2S)-4-(4-(3R,4R or 3S,4S)-hydroxy-3-methyltetrahydrofuran-3-yl)-2-methylpiperazin-1-yl)-7-methylisoquinolin-3-yl)-6-oxaspiro[2.5]octane-1-carboxamide]  4.68 nM
16. N#CC1(F)CCN(c2cc3cc(NC(=O)C4CC4c4cncnc4)ncc3cc2Cl)CC1 (single isomer, unassigned) [Ex-5.20]  9.12 nM
17. CC1(N2CCN(c3cc4cc(NC(=O)C5CCC56CCOCC6)ncc4cc3Cl)CC2)COCC1O (single isomer, unassigned) [Ex-1.28, (R or S)-N-(7-chloro-6-(4-((3R,4R or 3S,4S)-4-hydroxy-3-methyltetrahydrofuran-3-yl)piperazin-1-yl)isoquinolin-3-yl)-7-oxaspiro[3.5]nonane-1-carboxamide]  12 nM
18. CC12CC(C(=O)Nc3cc4cc(N5CCN(C6(C)COCC6O)CC5)c(Cl)cc4cn3)(CO1)C2 (single isomer, unassigned) [Ex-2.18, N-(7-chloro-6-(4-((3R,4R or 3S,4S)-4-hydroxy-3-methyltetrahydrofuran-3-yl)piperazin-1-yl)isoquinolin-3-yl)-1-methyl-2-oxabicyclo[2.1.1]hexane-4-carboxamide]  15.5 nM
19. Cc1cc2cnc(NC(=O)C3CCOC(C)(C)C3)cc2cc1N1CCN(C2(C)CCOC2)CC1 (single isomer, unassigned) [Ex-10.43, (4R or 4S)-2,2-dimethyl-N-[7-methyl-6-[4-((R or S)-3-methyltetrahydrofuran-3-yl)piperazin-1-yl]-3-isoquinolyl]tetrahydropyran-4-carboxamide]  19.5 nM
20. O=C(Nc1cc2cc(N3CCN(C4COCC4O)CC3)c(Cl)cc2cn1)C1CC12CCOCC2 (single isomer, unassigned) [Ex-2.8, (R or S)-N-(7-chloro-6-(4-((3R,4R or 3S,4S)-4-hydroxytetrahydrofuran-3-yl)piperazin-1-yl)isoquinolin-3-yl)-6-oxaspiro[2.5]octane-1-carboxamide]  24 nM
21. CC1(N2CCN(c3cc4cc(NC(=O)C5CC5)ncc4cc3Cl)CC2)COCC1O (single isomer, unassigned) [Ex-1.2, (3R,4R or 3S,4S)-N-(7-chloro-6-(4-(4-hydroxy-3-methyltetrahydrofuran-3-yl)piperazin-1-yl)isoquinolin-3-yl)cyclopropanecarboxamide]  25.1 nM
22. Cc1cc2cnc(NC(=O)C3CC34CCOC4)cc2cc1N1CCN(C2(C)COCC2O)CC1 (single isomer, unassigned) [Ex-6.6, (1R, 3S or 1S,3R, or 1R,3S, or 1S,3S)-N-(6-(4-((3R, 4R or 3S,4S)-4-hydroxy-3-methyltetrahydrofuran-3-yl)piperazin-1-yl)-7-methylisoquinolin-3-yl)-5-oxaspiro[2.4]heptane-1-carboxamide]  45.7 nM
23. CC1(N2CCN(c3cc4cc(NC(=O)C5CC56CCCOC6)ncc4cc3Cl)CC2)COCC1O (single isomer, unassigned) [Ex-1.15, (1R,3S, or 1R,3R, or 1S,3S, or 1S,3R)-N-(7-chloro-6-(4-((3R,4R or 3S,4S)-4-hydroxy-3-methyltetrahydrofuran-3-yl)piperazin-1-yl)isoquinolin-3-yl)-5-oxaspiro[2.5]octane-1-carboxamide]  46.8 nM
24. CC1(N2CCN(c3cc4cc(NC(=O)C5CC56CCOCC6)ncc4cc3Cl)CC2)CCOC1 (single isomer, unassigned) [Ex-5.13]  83.2 nM
25. O=C(Nc1cc2cc(N3CCN(C4COCC4O)CC3)c(Cl)cc2cn1)C1CC12CCOCC2 (single isomer, unassigned) [Ex-2.7, (R or S)-N-(7-chloro-6-(4-((3R,4R or 3S,4S)-4-hydroxytetrahydrofuran-3-yl)piperazin-1-yl)isoquinolin-3-yl)-6-oxaspiro[2.5]octane-1-carboxamide]  380 nM
